The results in this text go back to patent publication US9216973B2, “Insecticidal compounds” (Syngenta Participations AG, priority 2008, dated 2015).

Assay [1] deals with Diabrotica balteata (Corn root worm). Description: Diabrotica balteata larvae test on artificial diet. To be noted: for pest or weed control at 200 ppm: 120 h, 200 ppm (concentration in well 18 ppm), artificial diet, L2 larvae, larval mortality and growth regulation after 5 days; for effect on mortality, feeding behavior, or growth regulation: same protocol, 200 ppm. The class given is in vivo. Here is the method: (§1) This Example illustrates the insecticidal and acaricidal properties of compounds of formula (I). The tests were performed as follows:
(§2) Cotton leaf discs were placed on agar in a 24-well microtiter plate and sprayed with test solutions at an application rate of 200 ppm. After drying, the leaf discs were infested with 5 L1 larvae. The samples were checked for mortality, feeding behavior, and growth regulation 3 days after treatment (DAT). The following compound gave at least 80% control of Spodoptera littoralis: A1, A2, A5, A6, A7, A8, A10, A11, A12, A13, A14, A15, A16, A17, A18, A19, A21, A22, A23, A24, A25, A30, A31, A32, A33, A34, A35, A39, A40, A41 A42, A43, A44, A45, A46, A47, A48, A49, A50, A51, A53, A54, A55, A59, A60, A61, A62. Heliothis virescens (Tobacco budworm): Eggs (0-24 h old) were placed in 24-well microtiter plate on artificial diet and treated with test solutions at an application rate of 200 ppm (concentration in well 18 ppm) by pipetting. After an incubation period of 4 days, samples were checked for egg mortality, larval mortality, and growth regulation. The following compound gave at least 80% control of Heliothis virescens: A1, A2, A3, A4, A5, A6, A7, A8, A10, A11, A12, A13, A14, A15, A16, A18, A19, A21, A22, A24, A25, A30, A31, A32, A33, A34, A35, A37, A38, A39, A40, A42, A43, A44, A45, A46, A47, A48, A49, A50, A51, A55, AA57, A58, A59, A60, A61, A62. Plutella xylostella (Diamond back moth): 24-well microtiter plate (MTP) with artificial diet was treated with test solutions at an application rate of 200 ppm (concentration in well 18 ppm) by pipetting. After drying, the MTP's were infested with L2 larvae (7-12 per well). After an incubation period of 6 days, samples were checked for larval mortality and growth regulation. The following compound gave at least 80% control of Plutella xylostella: A1, A2, A5, A6, A7, A8, A9, A10, A11, A12, A13, A14, A15, A16, A17, A18, A19, A20, A21, A22, A24, A25, A30, A31, A32, A33, A34, A35, A37, A38, A39, A40, A42, A43, A44, A45, A46, A47, A48, A49, A50, A51, A52, A53, A54, A55, A57, A58, A59, A60, A61, A62, B3. Diabrotica balteata (Corn root worm): A 24-well microtiter plate (MTP) with artificial diet was treated with test solutions at an application rate of 200 ppm (concentration in well 18 ppm) by pipetting. After drying, the MTP's were infested with L2 larvae (6-10 per well). After an incubation period of 5 days, samples were checked for larval mortality and growth regulation. The following compound gave at least 80% control of Diabrotica balteata: A1, A2, A5, A6, A7, A10, A11, A12, A13, A14, A15, A16, A17, A18, A19, A21, A22, A24, A25, A30, A31, A32, A33, A34, A35, A38, A39, A40, A42, A43, A44, A45, A46, A47, A48, A49, A50, A59, A60, A61, A62. Thrips tabaci (Onion thrips): Sunflower leaf discs were placed on agar in a 24-well microtiter plate and sprayed with test solutions at an application rate of 200 ppm. After drying, the leaf discs were infested with an […] population of mixed ages. After an incubation period of 7 days, samples were checked for mortality. The following compounds gave at least 80% control of Thrips tabaci: A1, A2, A5, A6, A7, A8, A10, A12, A13, A14, A15, A16, A17, A18, A19, A21, A24, A25, A30, A31, A32, A33, A34, A35, A39, A42, A43, A44, A45, A46, A47, A48, A49, A50, A51, A53, A54, A57, A58, A59, A60, A61, A62. Tetranychus urticae (Two-spotted spider mite): Bean leaf discs on agar in 24-well microtiter plates were sprayed with test solutions at an application rate of 200 ppm. After drying, the leaf discs are infested with mite populations of mixed ages. 8 days later, discs are checked for egg mortality, larval mortality, and adult mortality. The following compound gave at least 80% control of Tetranychus urticae: A1, A2, A4, A5, A6, A7, A8, A10, A11, A12, A13, A14, A15, A16, A17, A18, A19, A20, A21, A22, A30, A31, A32, A33, A34, A35, A39, A40, A41, A42, A43, A44, A45, A46, A47, A48, A49, A50, A51, A53, A54, A55, A57, A59, A60, A61, A62.

In assay [2] the test system is Plutella xylostella (Diamond back moth). As to the kind of experiment: Plutella xylostella larvae test on artificial diet. The note with it: for pest or weed control at 200 ppm: 144 h, 200 ppm (concentration in well 18 ppm), artificial diet, L2 larvae, larval mortality and growth regulation after 6 days; for effect on mortality, feeding behavior, or growth regulation: same protocol, 200 ppm. In kind it is in vivo. Here is the method: as §1, §2

Bounds are passed on as bounds.

For orientation: pest or weed control means how far the test organism was held down. Read a low pest or weed control as a weak effect. Consider `CC1(NC(=O)c2ccc(C3=NOC(c4cc(Cl)cc(Cl)c4)(C(F)(F)F)C3)c3ccccc23)CSC1` (stereo not drawn) [A1], for which the pest or weed control at 200 ppm in assay [1] and in assay [2] was ≥ 80% throughout.
With `O=C(NC1CSC1)c1ccc(C2=NOC(c3cc(Cl)cc(Cl)c3)(C(F)(F)F)C2)c2ccccc12` (stereo not drawn) [A2], the pest or weed control at 200 ppm in assay [1] and in assay [2] was ≥ 80% each time.
`Cc1cc(C2=NOC(c3cc(Cl)cc(Cl)c3)(C(F)(F)F)C2Br)ccc1C(=O)NC1(C)CSC1` (stereo not drawn) [A5]: the pest or weed control at 200 ppm in assay [1] and in assay [2] was ≥ 80% each time.
Turning to `Cc1cc(C2=NOC(c3cc(Cl)cc(Cl)c3)(C(F)(F)F)C2Br)ccc1C(=O)NC1CSC1` (stereo not drawn) [A6], the pest or weed control at 200 ppm in assay [1] and in assay [2] was ≥ 80% in each case.
As for `Cc1cc(C2=NOC(c3cc(Cl)cc(Cl)c3)(C(F)(F)F)C2Br)ccc1C(=O)NC1C[S+]([O-])C1` (stereo not drawn) [A7], the pest or weed control at 200 ppm in assay [2] is ≥ 80%.
Regarding `Cc1cc(N2CC(c3cc(Cl)cc(Cl)c3)(C(F)(F)F)OC2=O)ccc1C(=O)NC1C[S+]([O-])C1` (stereo not drawn) [A10], the pest or weed control at 200 ppm in assay [1] and in assay [2] was ≥ 80% each time.
For the compound `Cc1cc(N2CC(c3cc(Cl)cc(Cl)c3)(C(F)(F)F)OC2=O)ccc1C(=O)NC1CSC1` (stereo not drawn) [A11], the pest or weed control at 200 ppm in assay [1] and in assay [2] was ≥ 80% in each case.
As for `Cc1cc(C2=NN(C)C(c3cc(Cl)cc(Cl)c3)(C(F)(F)F)C2)ccc1C(=O)NC1(C)CSC1` (stereo not drawn) [A12], the pest or weed control at 200 ppm in assay [1] and in assay [2] was ≥ 80% throughout.
Regarding `Cc1cc(C2=NN(C)C(c3cc(Cl)cc(Cl)c3)(C(F)(F)F)C2)ccc1C(=O)NC1C[S+]([O-])C1` (stereo not drawn) [A13], the pest or weed control at 200 ppm in assay [1] and in assay [2] was ≥ 80% in each case.
Take `Cc1cc(C2=NN(C)C(c3cc(Cl)cc(Cl)c3)(C(F)(F)F)C2)ccc1C(=O)NC1CSC1` (stereo not drawn) [A14]: the pest or weed control at 200 ppm in assay [1] and in assay [2] was ≥ 80% each time.
`O=C(NC1CS(=O)(=O)C1)c1ccc(C2=NOC(c3cc(Cl)cc(Cl)c3)(C(F)(F)F)C2)c2ccccc12` (stereo not drawn) [A15]: the pest or weed control at 200 ppm in assay [1] and in assay [2] was ≥ 80% each time.
Take `O=C(NC1C[S+]([O-])C1)c1ccc(C2=NOC(c3cc(Cl)cc(Cl)c3)(C(F)(F)F)C2)c2ccccc12` (stereo not drawn) [A16]: the pest or weed control at 200 ppm in assay [1] and in assay [2] was ≥ 80% throughout.
As for `Cc1cc(C2=NOC(c3cc(Cl)cc(Cl)c3)(C(F)(F)F)O2)ccc1C(=O)NC1CSC1` (stereo not drawn) [A17], the pest or weed control at 200 ppm in assay [1] and in assay [2] was ≥ 80% each time.
Take `Cc1cc(C2CC(c3cc(Cl)cc(Cl)c3)(C(F)(F)F)ON2C)ccc1C(=O)NC1C[S+]([O-])C1` (stereo not drawn) [A18]: the pest or weed control at 200 ppm in assay [1] and in assay [2] was ≥ 80% each time.
For the compound `Cc1cc(C2CC(c3cc(Cl)cc(Cl)c3)(C(F)(F)F)ON2C)ccc1C(=O)NC1CS(=O)(=O)C1` (stereo not drawn) [A19], the pest or weed control at 200 ppm in assay [1] and in assay [2] was ≥ 80% in each case.
`Cc1cc(C2CC(c3cc(Cl)cc(Cl)c3)(C(F)(F)F)ON2C)ccc1C(=O)NC1CSC1` (stereo not drawn) [A21]: the pest or weed control at 200 ppm in assay [1] and in assay [2] was ≥ 80% in each case.
As for `O=C(NC1CS(=O)(=O)C1)c1ccc(C2=NOC(c3cc(Cl)cc(Cl)c3)(C(F)(F)F)C2)c2nsnc12` (stereo not drawn) [A22], the pest or weed control at 200 ppm in assay [1] and in assay [2] was ≥ 80% each time.
Regarding `Cc1nc2c(C3=NOC(c4cc(Cl)cc(Cl)c4)(C(F)(F)F)C3)ccc(C(=O)NC3CS(=O)(=O)C3)c2o1` (stereo not drawn) [A26], the “effect on mortality, feeding behavior, or growth regulation” value (“effect on mortality, feeding behavior” for short) in assay [1] and in assay [2] was “little or no effect” in each case.
For the compound `Cc1nc2c(C3=NOC(c4cc(Cl)cc(Cl)c4)(C(F)(F)F)C3)ccc(C(=O)NC3(C)CSC3)c2o1` (stereo not drawn) [A27], the “effect on mortality, feeding behavior” value in assay [1] and in assay [2] was “little or no effect” each time.
In the case of `Cc1nc2c(C3=NOC(c4cc(Cl)cc(Cl)c4)(C(F)(F)F)C3)ccc(C(=O)NC3C[S+]([O-])C3)c2o1` (stereo not drawn) [A28], the “effect on mortality, feeding behavior” value in assay [1] and in assay [2] was “little or no effect” each time.
As for `Cc1nc2c(C3=NOC(c4cc(Cl)cc(Cl)c4)(C(F)(F)F)C3)ccc(C(=O)NC3CSC3)c2o1` (stereo not drawn) [A29], the “effect on mortality, feeding behavior” value in assay [1] and in assay [2] was “little or no effect” throughout.
With `Cc1cc(C2=NOC(c3cc(Cl)cc(Cl)c3)(C(F)(F)F)C2Cl)ccc1C(=O)NC1CS(=O)(=O)C1` (stereo not drawn) [A32], the pest or weed control at 200 ppm in assay [1] and in assay [2] was ≥ 80% in each case.
On to `Cc1cc(C2=NOC(c3cc(Cl)cc(Cl)c3)(C(F)(F)F)C2Cl)ccc1C(=O)NC1(C)CSC1` (stereo not drawn) [A33], for which the pest or weed control at 200 ppm in assay [1] and in assay [2] was ≥ 80% throughout.
Take `Cc1cc(C2=NOC(c3cc(Cl)cc(Cl)c3)(C(F)(F)F)C2Cl)ccc1C(=O)NC1C[S+]([O-])C1` (stereo not drawn) [A34]: the pest or weed control at 200 ppm in assay [1] and in assay [2] was ≥ 80% in each case.
For `CC1(NC(=O)c2cccc3c(C4=NOC(c5cc(Cl)cc(Cl)c5)(C(F)(F)F)C4)cccc23)CSC1` (stereo not drawn) [A36], the “effect on mortality, feeding behavior” value in assay [1] and in assay [2] was “little or no effect” throughout.
As to `O=C(NC1CS(=O)(=O)C1)c1ccc(C2=NOC(c3cc(Cl)cc(Cl)c3)(C(F)(F)F)C2Br)c2ccccc12` (stereo not drawn) [A42], the pest or weed control at 200 ppm in assay [1] and in assay [2] was ≥ 80% in each case.
With `CC1(NC(=O)c2ccc(C3=NOC(c4cc(Cl)cc(Cl)c4)(C(F)(F)F)C3Br)c3ccccc23)CSC1` (stereo not drawn) [A43], the pest or weed control at 200 ppm in assay [1] and in assay [2] was ≥ 80% each time.
For `Cc1cc(C2=NOC(c3cc(Cl)cc(Cl)c3)(C(F)(F)F)C2O)ccc1C(=O)NC1CS(=O)(=O)C1` (stereo not drawn) [A51], the pest or weed control at 200 ppm in assay [2] was ≥ 80%.
Consider `Cc1cc(C2=NOC(c3cc(Cl)cc(Cl)c3)(C(F)(F)F)C2O)ccc1C(=O)NC1C[S+]([O-])C1` (stereo not drawn) [A53], for which, in assay [2], the pest or weed control at 200 ppm is ≥ 80%.
Consider `Cc1cc(C2=NOC(c3cc(Cl)cc(Cl)c3)(C(F)(F)F)C2O)ccc1C(=O)NC1CSC1` (stereo not drawn) [A54], for which, in assay [2], the pest or weed control at 200 ppm is ≥ 80%.
Take `Cc1cc(C2=NOC(c3cc(Cl)cc(Cl)c3)(C(F)(F)F)/C2=N/O)ccc1C(=O)NC1CS(=O)(=O)C1` (stereo not drawn) [A55]: the pest or weed control at 200 ppm in assay [2] was ≥ 80%.
